Assay results: patent US9434701B2, “Aminoquinoxaline derivatives for treatment of neurodegenerative diseases” (CENTRE NATIONAL DE LA RECHERCHE SCIENTIFIQUE (CNRS), priority 2011, dated 2016)

How the values were obtained:
[1] = influence of time before euthanasia, per os route: brain extract and plasma concentration; type: in vivo, C57BL\6J mice
Method: This study was done on C57BL\6J (instead of RjOrl:SWISS) mice treated with compound 4bc by IP or per os.
Mice treated per os received a treatment of 150 mg/kg to 10 mL/kg of a solution of compound 4bc over 5 days comprising twice daily administrations for 4 days and a once daily administration the last day.

[2] = system: dopaminergic neurons (TH+) of rat embryo ventral midbrain culture; test: dopaminergic neuron spontaneous degeneration model in culture, TH+ neuron count after 8 days (Schmidt et al. protocol); type: cell-based
Method: Quinoxaline derivatives were tested on a dopaminergic neuron spontaneous degeneration model in culture according to the protocol described in the article by F. Schmidt et al. […] This model consists of culturing rat embryo ventral midbrain. This part of the brain in culture contains a proportion of dopaminergic neurons of 5% of the total neurons; the other neurons are mainly GABAergic. These cultures are also composed of glial cells, i.e., astrocytes, oligodendrocytes and microglia. These cultures are characterized by progressive neuron death.

[3] = IP study in rats: brain extract and plasma concentration; type: in vivo
Method: The kinetics in mouse brain and plasma of compound 4bc after IP administration are also shown in FIG. 8. • Another study was done in rats treated by IP. These rats received a treatment of 20 or 45 mg/kg at 10 mL/kg of a solution of compound 4bc over 2 days comprising 2 IP injections the first day and 1 IP injection the second day.

[4] = system: dopaminergic fibers in the striatum and dopaminergic neurons in the substantia nigra; test: neuroprotection in mice lesioned by intranasal MPTP (animal model of Parkinson's disease), TH immunohistochemistry; type: in vivo; details: oral 150 mg/kg twice daily 2 days then 75 mg/kg once daily
Description: The goal of this study is to test by an […] study the neuroprotective activity of compound 4bc administered orally to a mouse after it is poisoned by intranasal administration of MPTP. The food intake and weight of the animals were also compared to a control group. The densitometric analysis of striatal fibers and count of dopaminergic cell bodies in the substantia nigra, after immunohistochemical marking of tyrosine hydroxylase enabled quantifying the neuroprotective effect of the compound.
30 male C57BL\6J mice aged 3 months (supplier: Janvier Breeding Center) were used during this study.
Compound 4bc was administered orally at a dose of 150 mg/kg to 10 mL/kg, twice daily for two days, and then 75 mg/kg once daily. The carrier was composed of 0.5% Tween 80+99.5% carboxymethylcellulose (at 1% in water). A curved rigid tube connected to a 1 mL Terumo syringe was used for administration.
MPTP, a toxin specific for dopaminergic neurons was administered intranasally. One mg (10 μl) of MPTP/HCl (Sigma) dissolved in a 0.9% NaCl solution was delivered per nostril with a 3-minute interval between the two nostrils. […]
To quantify the neuroprotective capacity of compound 4bc, an immunohistochemistry study was done on floating brain slices. Two brain anatomic structures were analyzed: the striatum (20 μm slices, 10 levels) and the substantia nigra (20 μm slices, 7 levels). […]

[5] = per os 150 mg/kg, approximately 1 h 30 min
[6] = per os 150 mg/kg, approximately 2 h
[7] = per os 150 mg/kg, approximately 2 h 25 min
[8] = IP 20 mg/kg at 10 mL/kg, approximately 3 h

Cc1nc2ccc(N)cc2nc1-c1ccccc1 [Compound 4bc]
concentration at 1 h ([1]; C57BL\6J, mouse, brain extract, oral, per os 150 mg/kg over 5 days, approximately 1 h after last treatment): 2200 ng/mL | crossing of the blood-brain barrier in vivo ([1]; oral administration): able to cross the mouse or rat blood-brain barrier | Brain extract concentration ([1]; per os 150 mg/kg over 5 days, approximately 1 h after last treatment): 2.2 µg/mL | Plasma concentration ([1]; per os 150 mg/kg, approximately 1 h): 11600 ng/mL | Brain extract concentration [1, 5]: 0.2 µg/mL | Plasma concentration [1, 5]: 700 ng/mL | Brain extract concentration [1, 6]: 0.1 µg/mL | Plasma concentration [1, 6]: 40 ng/mL | Brain extract concentration [1, 7]: 0.05 µg/mL | Plasma concentration [1, 7]: 400 ng/mL | activity on survival of dopaminergic neurons (in words) ([2]; 100 nM, compared with dbcAMP): nearly equal to the one induced by dbcAMP | activity at 0.1 µM ([2]; Rattus norvegicus, Neuron, 192 h, compound at 100 nM, 8 days of culture, read-out: TH+ neurons in % of control ± SEM): 140% | Brain extract concentration [3, 8]: 0.1 µg/mL | Plasma concentration [3, 8]: 400 ng/mL | Brain extract concentration ([3]; IP 45 mg/kg at 10 mL/kg, approximately 1 h): 5.1 µg/mL | neuroprotective activity on dopaminergic fibers in vivo (FIGS. 9 and 10) ([4]; intranasal MPTP, Mann-Whitney test): significant neuroprotective activity | mild toxicity in animals who received only the compound (T/NL) ([4]; not lesioned): not significant
